{
  "source": "patent US20090318396A1",
  "about": "“CORTICOSTEROID LINKED BETA-AGONIST COMPOUNDS FOR USE IN THERAPY” (priority 2008, published 2009)",
  "key": {"[1]": {"tested_on": "airway epithelial cells cultured at an air-liquid interface", "assay": "Drug metabolism in airway epithelial cells cultured at an air-liquid interface", "assay_type": "in vitro ADME, human", "experimental": "Cryopreserved passage 1 cells were cultured in bronchial epithelial growth medium (Fulcher, M. L., et al., Well-differentiated human airway epithelial cell cultures. Methods Mol Med, 2005. 107: p. 183-206) on 100 mm Type I collagen-coated plastic dishes. At 70% confluence, passage 2 cells were transferred to type IV collagen-coated Millicell membranes (Millipore, Bedford, Mass.) in medium that supports growth at an air-liquid-interface (ALI) (Fulcher er al., 2005). Cells were maintained at an ALI and allowed to differentiate fully for approximately 28 days. […] Approximately 1 hour prior to the start of the experiment, the apical surfaces of the cells were washed once again with PBS and the basolateral media replaced with fresh ALI media. At time=0 hrs, the test article was diluted from a 10 mM stock solution in DMSO to a 40 μM solution in ALI media/PBS/10% EtOH/water (v/v). 50 μl of the resulting 40 μM solution was immediately added to the apical surface of the cells. 200 μl of the dosing solution was also added to 800 μl of 100% ACN and frozen immediately on dry ice. The remaining dosing solution was placed in the incubator with the cells. The dosing solution and cells were allowed to incubate for 10, 120 and 240 min at which points the apical surfaces of cells from 4 millicell cell culture inserts (n=4) were washed with 3×100 μl of PBS or 10% EtOH/water (v/v) per millicell. […]"}, "[2]": {"tested_on": "ovalbumin-induced lung inflammation", "assay": "Mouse ovalbumin model of lung inflammation", "assay_type": "in vivo, Mice (Balb/c)", "settings": "mouse OVA", "experimental": "Mice (Balb/c) were immunized by intraperitoneal injection of ovalbumin (10 μg OVA suspended in 2 mg aluminum hydroxide) on day 0 and 7. One group was sensitized and treated with vehicle (NSV). One group was immunized with sterile water only and treated with vehicle, e.g. to serve as a nonsensitized (negative) control (Vehicle). […] On days 14 and 15, the animals were exposed to OVA by inhalation (3 h; 5 mg/m^3). Forty eight hours following the last OVA challenge (day 17) mice were sacrificed. Bronchoalveolar lavage (BAL) was taken from each animal to collect cells and fluid. Cell numbers and differentials were calculated from BAL."}, "[3]": {"tested_on": "ragweed-induced bronchoconstriction", "assay": "Ragweed-induced bronchoconstriction in dogs", "assay_type": "in vivo, beagle dogs", "settings": "mean ± s.e.m.", "experimental": "The compound of Example 52 was assesed for bronchodilator activity in a ragweed-induced bronchoconstriction model in beagle dogs. Dogs were mechanically ventilated during each experiment. Airflow and tidal volume were measured using a differential pressure transducer located in front of the endotracheal tube. An esophageal balloon catheter placed in the esophagus was used to determine transpulmonary pressure. Pulmonary resistance and dynamic lung compliance were calculated from the simultaneous measurement of transpulmonary pressure and respiratory flow. The canine exposure system was designed to expose an anesthetized animal via an intubation tube. Dogs were administered vehicle or test article by inhalation 30 minutes before ragweed antigen exposure (n=4). Dogs were challenged with ragweed antigen (ragweed short, Ambrosia artemisifolia, Greer, Lenoir, N.C.) by inhalation (5 breaths). Immediately following ragweed challenge, changes in pulmonary resistance and compliance were measured for up to 30 minutes."}, "[4]": {"tested_on": "Ascaris suum antigen-induced bronchoconstriction and airway hyperreactivity", "assay": "Ascaris suum-induced pulmonary responses in sheep", "assay_type": "in vivo", "experimental": "One breath unit is defined as one breath of a 1% w/v carbachol solution. Test article was administered either by a pre-dosing or duration of action protocol. In the pre-dosing regimen, animals were dosed once daily for four days, with the last dose administered 1 hr before antigen. In the duration of action regimen, animals were dosed once daily for four days, with the last dose administered 24 hours before antigen. Test article, Ascaris antigen, and carbachol were administered by nebulized aerosol to intubated sheep."}, "[5]": {"assay": "Drug levels in plasma, BALF and lung after IT administration in the rat", "settings": "IT", "procedure": "Compounds of Examples 52 and 83 were formulated for intratracheal (IT) dosing in 10% EtOH, 90% Sterile Water, and dosed in male Sprague-Dawley rats at 3 mg/kg (Example 52) and 1 mg/kg (Example 83). Each dosing group consisted of 3 male, naïve purebred Sprague-Dawley rats. At dosing, the animals weighed ˜0.30 kg. The animals were fasted overnight prior to dose administration and up to 2 hr after dosing. The compounds were administered IT using a Penn Century Microsprayer (Model 1A-1B).\nBlood samples were collected at 0.5, 2, and 4 hours post-dose. Each blood sample (0.5-0.6 mL per sample) was collected via the orbital sinus (following anesthesia for BAL procedure) into tubes containing EDTA anti-coagulant into containers surrounded by dry ice at 0.5, 2 and 4 hr (mean, n=6). Blood samples were stored at −20±5° C. until shipped for analysis.\nThe animals were anesthetized with an intramuscular (IM) injection of a ketamine/xylazine/acepromazine (80/10/2 mg/kg) cocktail at a dose volume of 1.1 mL/kg. A cannula (modified Bard® infant feeding tube) was inserted into the trachea. Warmed sterile saline was injected into the lungs. The lungs were gently massaged by palpation of the chest for approximately 45 seconds. The fluid (BALF) was recovered and placed on ice. The procedure was repeated two more times, and all three BALF samples pooled. The fluid was centrifuged under refrigerated conditions at 350 g for 10 minutes. The supernatant and cell pellet were collected and stored at approximately −70° C. until shipped for analysis.\nImmediately following each BAL procedure, the lungs from each animal were removed, blotted dry, weighed, and stored frozen at −70° C. until shipped for analysis.\nAn LC/MS/MS method was used to measure the concentration of compound in plasma.\nAdd 3×w/v of 1×PBS buffer (90:10-PBS:ACN) to each lung tissue. Homogenize the sample w/Polytron (PT1200) and take 50 uL of supernatant and inject to LC/MSMS.\nAn aliquot of 50 μL of each plasma sample was treated with 100 mL of acetonitrile (ACN) containing internal standard. After the protein precipitation, an aliquot of 100 μL of the supernatant was transferred to a clean 96-well plate and mixed with 100 μL of water. An aliquot of 30 μL of the above solution was injected to the TSQ Ultra Quantum LC/MS/MS system.\nA HyPurity C18 HPLC column (30×2.1 mm, 5μ) from ThermoHypersil (Part #: 22105-032130) was used. Mobile phase A contained 1% acetonitrile in 10 mM ammonium formate aqueous solution with 1% formic acid. Mobile phase B contained 80% acetonitrile in 10 mM ammonium formate with 1% formic acid. An Agilent 1100 series binary pump (P/N G1312A Bin Pump) was used for elution and separation. HTS Pal autosampler from LEAP Technologies, Carrboro, N.C. was used.\nTSQ Quantum Ultra triple quadrupole mass spectrometer from Thermo Finnigan, San Jose, Calif. was used in selective reaction monitoring (SRM) operation mode, Tune file:"}, "[6]": {"settings": "3.0 mg/kg IT, 1x/day day 14 and 15"}},
  "data": [
    {"compound": "CC[N+](CC)(CC(=O)OCC(=O)[C@@]12O[C@H](C3CCCCC3)O[C@@H]1C[C@H]1[C@@H]3CCC4=CC(=O)C=C[C@]4(C)[C@H]3[C@@H](O)C[C@@]12C)Cc1cc(C(O)CNCCCCCCOCCCCc2ccccc2)ccc1OP(=O)(O)O.[Cl-]", "note": "(stereo partly drawn) [Example 52, [5-[1-hydroxy-2-[6-(4-phenylbutoxy)hexylamino]ethyl]-2-phosphonooxybenzyl]-(diethyl)-[[11β,16α]-[[15,16-((R)-cyclohexylmethylene)bis(oxy)]-11-hydroxypregna-1,4-diene-3,20-dion-21-yl]carbonylmethyl]ammonium chloride]", "values": [
      {"measurement": "amount of the parent compound over time", "setting": "[1]; apical and cellular compartments", "result": "decreased over time"},
      {"measurement": "amount of salmeterol and desciclesonide over time", "setting": "[1]; cellular compartment", "result": "increased in the cellular compartment"},
      {"measurement": "Eosinophils in BAL, Mean", "setting": "[2]; 0.6 mg/kg IT", "result": 367580, "unit": "mL⁻¹"},
      {"measurement": "Neutrophils in BAL, Mean", "setting": "[2]; 0.6 mg/kg IT", "result": 7270, "unit": "mL⁻¹"},
      {"measurement": "Eosinophils in BAL, Mean", "setting": "[2]; 1.0 mg/kg IT", "result": 163320, "unit": "mL⁻¹"},
      {"measurement": "Neutrophils in BAL, Mean", "setting": "[2]; 1.0 mg/kg IT", "result": 5340, "unit": "mL⁻¹"},
      {"measurement": "Eosinophils in BAL, Mean", "setting": "[2]; [6]", "result": 57420, "unit": "mL⁻¹"},
      {"measurement": "Neutrophils in BAL, Mean", "setting": "[2]; [6]", "result": 10370, "unit": "mL⁻¹"},
      {"measurement": "Pulmonary Resistance (% of Baseline)", "setting": "[3]; 6 μg/kg by inhalation", "result": "266.1 ± 19.6 % of Baseline"},
      {"measurement": "Pulmonary Resistance (% of Baseline)", "setting": "[3]; 20 μg/kg by inhalation", "result": "181.2 ± 11.5 % of Baseline"},
      {"measurement": "Bronchoconstriction, Lung Resistance (% Increase)", "setting": "[4]; Duration of action regimen (last dose 24 hours before antigen), Post-Ascaris, Example 52 4.7 mg, ciclesonide 2.2 mg, salmeterol xinafoate 2.5 mg, n=4", "result": 226, "unit": "% Increase"},
      {"measurement": "Bronchoconstriction, Lung Resistance (% Increase)", "setting": "[4]; Duration of action regimen, 1 hour, n=4", "result": 95, "unit": "% Increase"},
      {"measurement": "Bronchoconstriction, Lung Resistance (% Increase)", "setting": "[4]; Duration of action regimen, 2 hours, n=4", "result": 47, "unit": "% Increase"},
      {"measurement": "Bronchoconstriction, Lung Resistance (% Increase)", "setting": "[4]; Duration of action regimen, 3 hours, n=4", "result": 17, "unit": "% Increase"},
      {"measurement": "Bronchoconstriction, Lung Resistance (% Increase)", "setting": "[4]; Duration of action regimen, 4 hours, n=4", "result": 14, "unit": "% Increase"},
      {"measurement": "Bronchoconstriction, Lung Resistance (% Increase)", "setting": "[4]; Duration of action regimen, 5 hours, n=4", "result": 25, "unit": "% Increase"},
      {"measurement": "Bronchoconstriction, Lung Resistance (% Increase)", "setting": "[4]; Duration of action regimen, 6 hours, n=4", "result": 31, "unit": "% Increase"},
      {"measurement": "Bronchoconstriction, Lung Resistance (% Increase)", "setting": "[4]; Duration of action regimen, 6.5 hours, n=4", "result": 26, "unit": "% Increase"},
      {"measurement": "Bronchoconstriction, Lung Resistance (% Increase)", "setting": "[4]; Duration of action regimen, 7 hours, n=4", "result": 26, "unit": "% Increase"},
      {"measurement": "Bronchoconstriction, Lung Resistance (% Increase)", "setting": "[4]; Duration of action regimen, 7.5 hours, n=4", "result": 20, "unit": "% Increase"},
      {"measurement": "Bronchoconstriction, Lung Resistance (% Increase)", "setting": "[4]; Duration of action regimen, 8 hours, n=4", "result": 22, "unit": "% Increase"},
      {"measurement": "Hyperreactivity PC400", "setting": "[4]; Duration of action regimen, Baseline, Example 52 4.7 mg, ciclesonide 2.2 mg, salmeterol xinafoate 2.5 mg, n=4", "result": 27.8, "unit": "carbachol breath units"},
      {"measurement": "Hyperreactivity PC400", "setting": "[4]; Duration of action regimen, Post-Antigen, n=4", "result": 28, "unit": "carbachol breath units"},
      {"measurement": "Bronchoconstriction, Lung Resistance (% Increase)", "setting": "[4]; Predosing regimen (last dose 1 hr before antigen), Post-Ascaris, Example 52 4.7 mg, ciclesonide 2.2 mg, n=2", "result": 220, "unit": "% Increase"},
      {"measurement": "Bronchoconstriction, Lung Resistance (% Increase)", "setting": "[4]; Predosing regimen, 1 hour, n=2", "result": 118, "unit": "% Increase"},
      {"measurement": "Bronchoconstriction, Lung Resistance (% Increase)", "setting": "[4]; Predosing regimen, 2 hours, n=2", "result": 69, "unit": "% Increase"},
      {"measurement": "Bronchoconstriction, Lung Resistance (% Increase)", "setting": "[4]; Predosing regimen, 3 hours, n=2", "result": 34, "unit": "% Increase"},
      {"measurement": "Bronchoconstriction, Lung Resistance (% Increase)", "setting": "[4]; Predosing regimen, 4 hours, n=2", "result": 9, "unit": "% Increase"},
      {"measurement": "Bronchoconstriction, Lung Resistance (% Increase)", "setting": "[4]; Predosing regimen, 5 hours, n=2", "result": 24, "unit": "% Increase"},
      {"measurement": "Bronchoconstriction, Lung Resistance (% Increase)", "setting": "[4]; Predosing regimen, 6 hours, n=2", "result": 34, "unit": "% Increase"},
      {"measurement": "Bronchoconstriction, Lung Resistance (% Increase)", "setting": "[4]; Predosing regimen, 6.5 hours, n=2", "result": 19, "unit": "% Increase"},
      {"measurement": "Bronchoconstriction, Lung Resistance (% Increase)", "setting": "[4]; Predosing regimen, 7 hours, n=2", "result": 23, "unit": "% Increase"},
      {"measurement": "Bronchoconstriction, Lung Resistance (% Increase)", "setting": "[4]; Predosing regimen, 7.5 hours, n=2", "result": 28, "unit": "% Increase"},
      {"measurement": "Bronchoconstriction, Lung Resistance (% Increase)", "setting": "[4]; Predosing regimen, 8 hours, n=2", "result": 14, "unit": "% Increase"},
      {"measurement": "Hyperreactivity PC400", "setting": "[4]; Predosing regimen, Baseline, Example 52 4.7 mg, ciclesonide 2.2 mg, n=2", "result": 27.5, "unit": "carbachol breath units"},
      {"measurement": "Hyperreactivity PC400", "setting": "[4]; Predosing regimen, Post-Antigen (24 hours after challenge), n=2", "result": 26.0, "unit": "carbachol breath units"},
      {"measurement": "Effect on early phase bronchoconstriction", "setting": "[4]; duration of action regimen", "result": "reduction"},
      {"measurement": "Effect on late phase bronchoconstriction and development of airway hyperreactivity", "setting": "[4]; duration of action regimen", "result": "complete inhibition"},
      {"measurement": "Metabolism in the lung following IT administration", "setting": "[5]", "result": "metabolized to Salmeterol and Desisobutyryl Ciclesonide in the lung"}
    ]}
  ]
}
